{"source": "patent US20090012056A1", "about": "“Quinoline Compounds Capable of Binding the Cb2 and/or the 5-Ht6 Receptor” (GLAXO GROUP LIMITED, priority 2005, published 2009)", "key": {"[1]": {"target": "T1, human cloned 5-HT6 receptors (Homo sapiens, UniProt P50406)", "T1 construct": "expressed in transfected cells; host or cells: HeLa cells (membranes)", "T1 sequence (P50406 whole entry)": "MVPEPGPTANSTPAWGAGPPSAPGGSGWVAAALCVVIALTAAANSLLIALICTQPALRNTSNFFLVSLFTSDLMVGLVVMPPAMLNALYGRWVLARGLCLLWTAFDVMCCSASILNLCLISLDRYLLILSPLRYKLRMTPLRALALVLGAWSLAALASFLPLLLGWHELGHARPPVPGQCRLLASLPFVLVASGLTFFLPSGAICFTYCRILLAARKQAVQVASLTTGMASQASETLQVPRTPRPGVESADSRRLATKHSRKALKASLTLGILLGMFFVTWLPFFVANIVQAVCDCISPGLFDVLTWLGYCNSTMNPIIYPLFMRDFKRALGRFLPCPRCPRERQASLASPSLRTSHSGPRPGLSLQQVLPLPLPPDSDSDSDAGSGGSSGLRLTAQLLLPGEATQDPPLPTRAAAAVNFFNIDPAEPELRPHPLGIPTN", "test": "Cyclase assay (cAMP production in membranes of HeLa 5HT6 cells, antagonism of 5-HT)", "assay_type": "biochemical", "settings": "cyclase assay with 5-HT at 4xEC50, read-out: fpKi (functional pKi, antagonist potency) (converted)", "experimental": "0.5 μl of test compound in 100% dimethylsulfoxide (DMSO) was added to a white, solid 384 well assay plate (for dose response measurements the top of the concentration range is 7.5 μM final). 10 μl of washed membranes of HeLa 5HT6 cells (for preparation see WO 98/27081) in basic buffer (50 mM HEPES pH 7.4 (KOH), 1 mM MgCl2, 100 mM NaCl, 1 μl/ml 3-isobutyl-1-methylxanthine (IBMX) (Sigma-Aldrich)) was added to all wells followed by 10 μl 2×ATP buffer (100 μl/ml ATP and 1 μl/ml 3-Isobutyl-1-methylxanthine (IBMX) (Sigma-Aldrich)) with 5-HT (at a concentration equivalent to a dose response of 4×EC50). The resultant mixture was then incubated at room temperature for 30-45 minutes to allow cAMP production.\ncAMP production was then measured using the DiscoveRx™ HitHunter™ chemiluminescence cAMP assay kit (DiscoveRx Corporation, 42501 Albrae Street, Fremont, Calif. 94538; Product Code: 90-0004L) or any other suitable cAMP measurement assay.\nIC50 values were estimated from arbitrary designated unit (ADU) measurements from a Perkin Elmer Viewlux instrument using a four parameter logistic curve fit within EXCEL (Bowen, W. P. and Jerman, J. C. (1995), Nonlinear regression using spreadsheets. Trends in Pharmacol. Sci., 16, 413-417). Functional Ki values were calculated using the method of Cheng, Y. C. and Prussof, W. H. (Biochemical Pharmacol (1973) 22 3099-3108). pIC50 and fpKi are the negative log 10 of the molar IC50 and functional Ki respectively."}, "[2]": {"target": "T2, human cannabinoid CB2 receptor (Homo sapiens, UniProt P34972)", "T2 construct": "expressed in transfected cells; host or cells: Saccharomyces cerevisiae strain MMY23", "T2 sequence (P34972 whole entry)": "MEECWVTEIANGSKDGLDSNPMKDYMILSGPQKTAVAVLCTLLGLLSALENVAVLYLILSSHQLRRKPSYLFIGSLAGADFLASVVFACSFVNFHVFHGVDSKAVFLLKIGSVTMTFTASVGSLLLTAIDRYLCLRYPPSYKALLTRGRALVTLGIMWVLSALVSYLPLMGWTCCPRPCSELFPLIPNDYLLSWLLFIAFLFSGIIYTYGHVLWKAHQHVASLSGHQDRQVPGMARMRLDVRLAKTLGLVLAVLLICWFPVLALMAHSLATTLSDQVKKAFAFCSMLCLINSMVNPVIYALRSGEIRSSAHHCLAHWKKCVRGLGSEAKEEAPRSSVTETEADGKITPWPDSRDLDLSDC", "test": "Cannabinoid CB2 receptor agonist activity in yeast cells expressing the human CB2 receptor (FDGlu fluorescence)", "assay_type": "cell-based", "settings": "24 hours at 30° C., read-out: pEC50 at the CB2 receptor (agonist activity) (converted)", "source_text": "Yeast (Saccharomyces cerevisiae) cells expressing the human cannabinoid CB2 receptor were generated by integration of an expression cassette into the ura3 chromosomal locus of yeast strain MMY23. This cassette consisted of DNA sequence encoding the human CB2 receptor flanked by the yeast GPD promoter to the 5′ end of CB2 and a yeast transcriptional terminator sequence to the 3′ end of CB2. MMY23 expresses a yeast/mammalian chimeric G-protein alpha subunit in which the C-terminal 5 amino acids of Gpa1 are replaced with the C-terminal 5 amino acids of human Gαi1/23 (as described in Brown et al. (2000), Yeast 16:11-22). Cells were grown at 30° C. in liquid Synthetic Complete (SC) yeast media (Guthrie and Fink (1991), Methods in Enzymology, Vol. 194) lacking uracil, tryptophan, adenine and leucine to late logarithmic phase (approximately 6 OD600/ml).\nAgonists were prepared as 10 mM solutions in DMSO. EC50 values (the concentration required to produce 50% maximal response) were estimated using 4 fold dilutions of between 3- and 5-fold (BiomekFX, Beckman) into DMSO. Agonist solutions in DMSO (1% final assay volume) were transferred into black microtitre plates from NUNC Greiner (384-well). Cells were suspended at a density of 0.2 OD600/ml in SC media lacking histidine, uracil, tryptophan, adenine and leucine and supplemented with 10 mM 3-aminotriazole, 0.1M sodium phosphate pH 7.0, and 120 μM fluorescein di-β-D-glucopyranoside (FDGlu). This mixture (50 ul per well) was added to agonist in the assay plates (Multidrop 384, Labsystems). After incubation at 30° C. for 24 hours, fluorescence resulting from degradation of FDGlu to fluorescein due to exoglucanase, an endogenous yeast enzyme produced during agonist-stimulated cell growth, was determined using a fluorescence microtitre plate reader (Tecan Spectrofluor or LJL Analyst excitation wavelength: 485 nm; emission wavelength: 535 nm). Fluorescence was plotted against compound concentration and iteratively curve fitted using a four parameter fit to generate a concentration effect value.\nEfficacy (Emax) was calculated from the equation\nEmax=Max[compound X]−Min[compound X]/Max[HU210]−Min[HU210]×100% • where Max[compound X] and Min[compound X] are the fitted maximum and minimum respectively from the concentration effect curve for compound X, and Max[HU210] and Min[HU210] are the fitted maximum and minimum respectively from the concentration effect curve for (6aR,10aR)-3-(1,1′-Dimethylheptyl)-6a,7,10,10a-tetrahydro-1-hydroxy-6,6-dimethyl-6H-dibenzo[b,d]pyran-9-methanol (HU210; available from Tocris). Equieffective molar ratio (EMR) values were calculated from the equation\nEMR=EC50[compound X]/EC50[HU210] • Where EC50 [compound X] is the EC50 of compound X and EC50 [HU210] is the EC50 of HU210. • pEC50 is the negative log of the EC50."}}, "note": "Structures can show the parent of a compound that is named as a salt."}
{"smiles": "CN(C)Cc1cccc2cc(S(=O)(=O)c3ccccc3)cnc12", "note": "[Example 7, N,N-Dimethyl-1-[3-(phenylsulfonyl)quinolin-8-yl]methanamine]", "values": [{"measurement": "Ki", "setting": "[1]", "value": "< 100", "unit": "nM"}, {"measurement": "EC50", "setting": "[2]", "value": "≤ 10", "unit": "µM"}]}
{"smiles": "CC1CCCN1Cc1cccc2cc(S(=O)(=O)c3ccccc3)cnc12", "note": "(centres unmarked) [Example 8, 8-[(2-Methylpyrrolidin-1-yl)methyl]-3-(phenylsulfonyl)quinoline]", "values": [{"measurement": "Ki", "setting": "[1]", "value": "< 100", "unit": "nM"}, {"measurement": "EC50", "setting": "[2]", "value": "≤ 10", "unit": "µM"}]}
{"smiles": "CC(C)N(C)C(C)c1cccc2cc(S(=O)(=O)c3ccccc3)cnc12", "note": "(centres unmarked) [Example 20, N-Methyl-N-{1-[3-(phenylsulfonyl)quinolin-8-yl]ethyl}propan-2-amine hydrochloride]", "values": [{"measurement": "Ki", "setting": "[1]", "value": "< 100", "unit": "nM"}, {"measurement": "EC50", "setting": "[2]", "value": "< 1", "unit": "µM"}]}
{"smiles": "O=S(=O)(c1ccc(F)cc1)c1cnc2c(CN3CCCC3)cccc2c1", "note": "[Example 23, 3-[(4-Fluorophenyl)sulfonyl]-8-(1-pyrrolidinylmethyl)quinoline hydrochloride]", "values": [{"measurement": "Ki", "setting": "[1]", "value": "< 100", "unit": "nM"}, {"measurement": "EC50", "setting": "[2]", "value": "≤ 10", "unit": "µM"}]}
{"smiles": "CC(=O)N1CCN(Cc2cccc3cc(S(=O)(=O)c4ccccc4)cnc23)CC1", "note": "[Example 24, 8-[(4-acetyl-1-piperazinyl)methyl]-3-(phenylsulfonyl)quinoline hydrochloride]", "values": [{"measurement": "Ki", "setting": "[1]", "value": "≤ 1000", "unit": "nM"}, {"measurement": "EC50", "setting": "[2]", "value": "≤ 10", "unit": "µM"}]}
{"smiles": "CC(C)NCc1cccc2cc(S(=O)(=O)c3ccccc3)cnc12", "note": "[Example 25, N-{[3-(phenylsulfonyl)-8-quinolinyl]methyl}-2-propanamine hydrochloride]", "values": [{"measurement": "Ki", "setting": "[1]", "value": "< 100", "unit": "nM"}, {"measurement": "EC50", "setting": "[2]", "value": "< 1", "unit": "µM"}]}
{"smiles": "CNCc1cccc2cc(S(=O)(=O)c3ccccc3)cnc12", "note": "[Example 26, N-methyl-1-[3-(phenylsulfonyl)-8-quinolinyl]methanamine hydrochloride]", "values": [{"measurement": "Ki", "setting": "[1]", "value": "< 100", "unit": "nM"}, {"measurement": "EC50", "setting": "[2]", "value": "≤ 10", "unit": "µM"}]}
{"smiles": "O=S(=O)(c1ccccc1)c1cnc2c(CN3CCCC(F)(F)C3)cccc2c1", "note": "[Example 27, 8-[(3,3-Difluoropiperidin-1-yl)methyl]-3-(phenylsulfonyl)quinoline hydrochloride]", "values": [{"measurement": "Ki", "setting": "[1]", "value": "> 1000", "unit": "nM"}, {"measurement": "EC50", "setting": "[2]", "value": "< 1", "unit": "µM"}]}
{"smiles": "COC1CCN(Cc2cccc3cc(S(=O)(=O)c4ccccc4)cnc23)CC1", "note": "[Example 28, 8-[(4-Methoxypiperidin-1-yl)methyl]-3-(phenylsulfonyl)quinoline hydrochloride]", "values": [{"measurement": "Ki", "setting": "[1]", "value": "< 100", "unit": "nM"}, {"measurement": "EC50", "setting": "[2]", "value": "< 1", "unit": "µM"}]}
{"smiles": "CC1CCCCN1Cc1cccc2cc(S(=O)(=O)c3ccccc3)cnc12", "note": "(centres unmarked) [Example 29, 8-[(2-Methyl-1-piperidinyl)methyl]-3-(phenylsulfonyl)quinoline hydrochloride]", "values": [{"measurement": "Ki", "setting": "[1]", "value": "≤ 1000", "unit": "nM"}, {"measurement": "EC50", "setting": "[2]", "value": "≤ 10", "unit": "µM"}]}
{"smiles": "CC1CCCN(Cc2cccc3cc(S(=O)(=O)c4ccccc4)cnc23)C1", "note": "(centres unmarked) [Example 30, 8-[(3-Methyl-1-piperidinyl)methyl]-3-(phenylsulfonyl)quinoline hydrochloride]", "values": [{"measurement": "Ki", "setting": "[1]", "value": "< 100", "unit": "nM"}, {"measurement": "EC50", "setting": "[2]", "value": "< 1", "unit": "µM"}]}
{"smiles": "O=S(=O)(c1ccccc1)c1cnc2c(CN3CCC4(CC3)OCCO4)cccc2c1", "note": "[Example 31, 8-(1,4-Dioxa-8-azaspiro[4.5]dec-8-ylmethyl)-3-(phenylsulfonyl)quinoline hydrochloride]", "values": [{"measurement": "Ki", "setting": "[1]", "value": "< 100", "unit": "nM"}, {"measurement": "EC50", "setting": "[2]", "value": "≤ 10", "unit": "µM"}]}
{"smiles": "O=S1(=O)CCN(Cc2cccc3cc(S(=O)(=O)c4ccccc4)cnc23)CC1", "note": "[Example 32, 8-[(1,1-Dioxido-4-thiomorpholinyl)methyl]-3-(phenylsulfonyl)quinoline hydrochloride]", "values": [{"measurement": "Ki", "setting": "[1]", "value": "≤ 1000", "unit": "nM"}, {"measurement": "EC50", "setting": "[2]", "value": "< 1", "unit": "µM"}]}
